According to PubChem BioAssay (NCI):
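Five compound concentrations were applied to cells in 96-well plates for 48 hours; endpoints were derived by simple linear interpolation of the resulting dose-response curve. The concentration for full growth arrest is given as TGI.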

Columns and labels:
Assay in all cases: NCI anticancer screen, dose series, 48 h
CCRF-CEM leukemia = tested on: CCRF-CEM leukemia
NCI-H23 lung = tested on: NCI-H23 lung
ACHN renal = tested on: ACHN renal
NCI-H522 lung = tested on: NCI-H522 lung
HL-60(TB) leukemia = tested on: HL-60(TB) leukemia
HOP-62 NSCLC = tested on: HOP-62 NSCLC
HCT-116 colon = tested on: HCT-116 colon
OVCAR-5 ovarian = tested on: OVCAR-5 ovarian
SF-539 CNS = tested on: SF-539 CNS
U251 CNS = tested on: U251 CNS
MDA-MB-231 breast = tested on: MDA-MB-231 breast
K-562 leukemia = tested on: K-562 leukemia
SW-620 colon = tested on: SW-620 colon
UACC-62 melanoma = tested on: UACC-62 melanoma
COLO 205 colon = tested on: COLO 205 colon
MALME-3M melanoma = tested on: MALME-3M melanoma
SR leukemia = tested on: SR leukemia
HCC-2998 colon = tested on: HCC-2998 colon
SF-295 CNS = tested on: SF-295 CNS
M14 melanoma = tested on: M14 melanoma
SNB-19 CNS = tested on: SNB-19 CNS
OVCAR-3 ovarian = tested on: OVCAR-3 ovarian
T-47D breast = tested on: T-47D breast
NCI-H226 lung = tested on: NCI-H226 lung
NCI/ADR-RES ovarian = tested on: NCI/ADR-RES ovarian
SF-268 CNS = tested on: SF-268 CNS
SK-MEL-2 melanoma = tested on: SK-MEL-2 melanoma
PC-3 prostate = tested on: PC-3 prostate
CAKI-1 renal = tested on: CAKI-1 renal
MCF7 breast = tested on: MCF7 breast
OVCAR-8 ovarian = tested on: OVCAR-8 ovarian
IGROV1 ovarian = tested on: IGROV1 ovarian
A498 renal = tested on: A498 renal
MOLT-4 leukemia = tested on: MOLT-4 leukemia
BT-549 breast = tested on: BT-549 breast
HS 578T breast = tested on: HS 578T breast
SK-OV-3 ovarian = tested on: SK-OV-3 ovarian
A549 NSCLC = tested on: A549 NSCLC
SK-MEL-5 melanoma = tested on: SK-MEL-5 melanoma
786-0 renal = tested on: 786-0 renal
SN12C renal = tested on: SN12C renal
NCI-H460 lung = tested on: NCI-H460 lung
HCT-15 colon = tested on: HCT-15 colon
MDA-MB-435 = tested on: MDA-MB-435
KM12 colon = tested on: KM12 colon
MDA-N = tested on: MDA-N
SNB-75 CNS = tested on: SNB-75 CNS
DU-145 prostate = tested on: DU-145 prostate
HT29 colon = tested on: HT29 colon
UACC-257 melanoma = tested on: UACC-257 melanoma
UO-31 renal = tested on: UO-31 renal
SK-MEL-28 melanoma = tested on: SK-MEL-28 melanoma
TK-10 renal = tested on: TK-10 renal
HOP-92 NSCLC = tested on: HOP-92 NSCLC
OVCAR-4 ovarian = tested on: OVCAR-4 ovarian
LOX IMVI melanoma = tested on: LOX IMVI melanoma
RXF 393 renal = tested on: RXF 393 renal
EKVX NSCLC = tested on: EKVX NSCLC

`COc1ccc2cc(C(=O)O)ccc2c1OC` showed a TGI (CCRF-CEM leukemia) greater than 100 µM, a TGI (NCI-H23 lung) greater than 100 µM and a TGI (ACHN renal) greater than 100 µM. The TGI (NCI-H522 lung) was greater than 100 µM, the TGI (HL-60(TB) leukemia) was greater than 100 µM and the TGI (HOP-62 NSCLC) was greater than 100 µM. It also gave a TGI (HCT-116 colon) greater than 100 µM, a TGI (OVCAR-5 ovarian) greater than 100 µM and a TGI (SF-539 CNS) greater than 100 µM. The TGI (U251 CNS) was greater than 100 µM, the TGI (MDA-MB-231 breast) was greater than 100 µM and the TGI (K-562 leukemia) was greater than 100 µM. It also gave a TGI (SW-620 colon) greater than 100 µM, a TGI (UACC-62 melanoma) greater than 100 µM and a TGI (COLO 205 colon) greater than 100 µM. The TGI (MALME-3M melanoma) was greater than 100 µM, the TGI (SR leukemia) was greater than 100 µM and the TGI (HCC-2998 colon) was greater than 100 µM. The TGI (SF-295 CNS) was greater than 100 µM, the TGI (M14 melanoma) was greater than 100 µM and the TGI (SNB-19 CNS) was greater than 100 µM. The TGI (OVCAR-3 ovarian) was greater than 100 µM, the TGI (T-47D breast) was greater than 100 µM and the TGI (NCI-H226 lung) was greater than 100 µM. The TGI (NCI/ADR-RES ovarian) was greater than 100 µM, the TGI (SF-268 CNS) was greater than 100 µM and the TGI (SK-MEL-2 melanoma) was greater than 100 µM. The TGI (PC-3 prostate) was greater than 100 µM, the TGI (CAKI-1 renal) was greater than 100 µM and the TGI (MCF7 breast) was greater than 100 µM. The TGI (OVCAR-8 ovarian) was greater than 100 µM, the TGI (IGROV1 ovarian) was greater than 100 µM and the TGI (A498 renal) was greater than 100 µM. It also gave a TGI (MOLT-4 leukemia) greater than 100 µM, a TGI (BT-549 breast) greater than 100 µM and a TGI (HS 578T breast) greater than 100 µM. For the same compound, the TGI (SK-OV-3 ovarian) was greater than 100 µM, the TGI (A549 NSCLC) was greater than 100 µM and the TGI (SK-MEL-5 melanoma) was greater than 100 µM. The TGI (786-0 renal) was greater than 100 µM, the TGI (SN12C renal) was greater than 100 µM and the TGI (NCI-H460 lung) was greater than 100 µM. For the same compound, the TGI (HCT-15 colon) was greater than 100 µM, the TGI (MDA-MB-435) was greater than 100 µM and the TGI (KM12 colon) was greater than 100 µM. The TGI (MDA-N) was greater than 100 µM, the TGI (SNB-75 CNS) was greater than 100 µM and the TGI (DU-145 prostate) was greater than 100 µM. The TGI (HT29 colon) was greater than 100 µM, the TGI (UACC-257 melanoma) was greater than 100 µM and the TGI (UO-31 renal) was greater than 100 µM.

`CC1=CC[C@@]2(CO)[C@@H]([C@@H]1C)[C@H]1CC[C@@H]3[C@@]4(C)CC[C@H](O)C(C)(C)[C@@H]4CC[C@@]3(C)[C@]1(C)C[C@@H]2O` was tested, and the TGI (CCRF-CEM leukemia) was greater than 100 µM, the TGI (NCI-H23 lung) was 46.4 µM and the TGI (ACHN renal) was 91.7 µM. It also gave a TGI (NCI-H522 lung) of 42.8 µM, a TGI (HL-60(TB) leukemia) greater than 100 µM and a TGI (HOP-62 NSCLC) of 39.8 µM. The TGI (HCT-116 colon) was greater than 100 µM, the TGI (SK-MEL-28 melanoma) was greater than 100 µM and the TGI (OVCAR-5 ovarian) was greater than 100 µM. It also gave a TGI (U251 CNS) of 46.7 µM, a TGI (K-562 leukemia) greater than 100 µM and a TGI (SW-620 colon) greater than 100 µM. The TGI (TK-10 renal) was 44.4 µM, the TGI (UACC-62 melanoma) was greater than 100 µM and the TGI (COLO 205 colon) was 50.2 µM. For the same compound, the TGI (MALME-3M melanoma) was 72.8 µM, the TGI (SF-295 CNS) was 58.4 µM and the TGI (M14 melanoma) was greater than 100 µM. It also gave a TGI (SNB-19 CNS) greater than 100 µM, a TGI (HOP-92 NSCLC) of 44 µM and a TGI (OVCAR-3 ovarian) greater than 100 µM. For the same compound, the TGI (T-47D breast) was 75.1 µM, the TGI (NCI-H226 lung) was 81.4 µM and the TGI (NCI/ADR-RES ovarian) was greater than 100 µM. For the same compound, the TGI (SF-268 CNS) was greater than 100 µM, the TGI (PC-3 prostate) was greater than 100 µM and the TGI (CAKI-1 renal) was greater than 100 µM. It also gave a TGI (MCF7 breast) greater than 100 µM, a TGI (OVCAR-8 ovarian) of 55 µM and a TGI (IGROV1 ovarian) of 82.3 µM. For the same compound, the TGI (A498 renal) was 58.8 µM, the TGI (MOLT-4 leukemia) was greater than 100 µM and the TGI (OVCAR-4 ovarian) was greater than 100 µM. It also gave a TGI (BT-549 breast) of 59.2 µM, a TGI (HS 578T breast) greater than 100 µM and a TGI (SK-OV-3 ovarian) of 39.4 µM. The TGI (A549 NSCLC) was greater than 100 µM, the TGI (SK-MEL-5 melanoma) was 42.1 µM and the TGI (786-0 renal) was greater than 100 µM. For the same compound, the TGI (SN12C renal) was greater than 100 µM, the TGI (NCI-H460 lung) was greater than 100 µM and the TGI (HCT-15 colon) was greater than 100 µM. The TGI (MDA-MB-435) was greater than 100 µM, the TGI (LOX IMVI melanoma) was 45.2 µM and the TGI (KM12 colon) was greater than 100 µM. It also gave a TGI (RXF 393 renal) of 25.7 µM, a TGI (MDA-N) greater than 100 µM and a TGI (DU-145 prostate) greater than 100 µM. For the same compound, the TGI (EKVX NSCLC) was greater than 100 µM, the TGI (HT29 colon) was greater than 100 µM and the TGI (UACC-257 melanoma) was greater than 100 µM. It also gave a TGI (UO-31 renal) greater than 100 µM.
